Biological target: T1, Recombinant human mPGES-1 (Homo sapiens, UniProt O14684)
T1 sequence (O14684 1-152): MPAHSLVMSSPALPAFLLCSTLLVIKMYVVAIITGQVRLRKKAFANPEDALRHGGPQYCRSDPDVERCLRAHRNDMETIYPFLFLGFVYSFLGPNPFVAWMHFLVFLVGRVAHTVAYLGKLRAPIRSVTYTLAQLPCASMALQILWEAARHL
Assay: In-vitro mPGES-1 enzyme inhibition assay (PGE2 formation from PGH2, HTRF detection)
Type: biochemical
Settings: for inhibition at 1 µM: 1 μM test compound, read-out: Percentage inhibition at 1 μM; for inhibition at 1 µM / inhibition at 10 µM: recombinant human mPGES-1 microsomal fraction; for inhibition at 10 µM: 10 μM test compound, read-out: Percentage inhibition at 10 μM; for IC50: class symbols, selected examples
Text: In-Vitro Protocol for Screening of mPGES-1 Inhibitors: mPGES-1 (microsomal prostaglandin E synthase-1) is a microsomal enzyme that converts endoperoxide substrate PGH2 (prostaglandin H2) to product PGE2 (prostaglandin E2) by isomerization in the presence of reduced glutathione (GSH). mPGES-1 inhibitors were screened by assessing their ability to inhibit formation of PGE2 from PGH2 in presence of mPGES-1 using anti-PGE2 antibody based detection method. […] Assay was set up using crude microsomal fractions at protein concentration of 40-60 μg/mL. […] Final concentration of DMSO in reaction was 0.5% (v/v). Negative controls comprised of all assay reagents except the enzyme. Positive controls comprised of enzyme reaction in the absence of any inhibitor. […] Reaction was stopped by addition of Stannous chloride (11 mg/ml) and PGE2 levels were measured ([…] et al. […] Inhibition of mPGES-1 enzyme activity was measured using percent of reaction occurring in the positive control. Concentration response curves were plotted using percent inhibition of maximum enzyme reaction. IC50 value was calculated from concentration response curve by nonlinear regression analysis using GraphPad PRISM software.

Row | Structure (SMILES) | inhibition at 1 µM | inhibition at 10 µM | IC50
1 | CC1(C)Cc2c(c(C(=O)NCC3CCCCC3)cc3nc(Nc4c(Cl)cncc4Cl)[nH]c23)O1 [Example-27, N-(Cyclohexylmethyl)-2-[(3,5-dichloropyridin-4-yl)amino]-7,7-dimethyl-7,8-dihydro-1H-furo[3,2-e]benzimidazole-5-carboxamide] | 93.7% | 93% | 
2 | CC1(C)Cc2c(c(C(=O)NC3CCCCC3)cc3nc(Nc4c(Cl)cncc4Cl)sc23)O1 [Example-28, N-Cyclohexyl-2-[(3,5-dichloropyridin-4-yl)amino]-7,7-dimethyl-7,8-dihydrofuro[2,3-g][1,3]benzothiazole-5-carboxamide] | 87.3% | 98.9% | > 100 nM
3 | Cc1cc2c(o1)c(C(=O)Nc1ccc(C(F)(F)F)cc1)cc1nc(Nc3c(Cl)cncc3Cl)[nH]c12 [Example-32, 2-[(3,5-Dichloropyridin-4-yl)amino]-7-methyl-N-[4-(trifluoromethyl)phenyl]-1H-furo[3,2-e]benzimidazole-5-carboxamide] | 99% | 100% | 
4 | Cc1cc2c(o1)c(C(=O)NC(C)(C)CC(C)(C)C)cc1nc(Nc3c(Cl)cncc3Cl)[nH]c12 [Example-34, 2-[(3,5-Dichloropyridin-4-yl)amino]-7-methyl-N-(2,4,4-trimethylpentan-2-yl)-1H-furo[3,2-e]benzimidazole-5-carboxamide] | 95.5% | 98.7% | < 50 nM
5 | Cc1cc2c(o1)c(C(=O)NCc1ccc(F)cc1)cc1nc(Nc3c(Cl)cccc3Cl)[nH]c12 [Example-35, 2-[(2,6-Dichlorophenyl)amino]-N-(4-fluorobenzyl)-7-methyl-1H-furo[3,2-e]benzimidazole-5-carboxamide] | 89.3% | 99.1% | 
6 | Cc1cc2c(o1)c(C(=O)Nc1ccc(F)cc1)cc1nc(Nc3c(Cl)cncc3Cl)[nH]c12 [Example-36, 2-[(3,5-Dichloropyridin-4-yl)amino]-N-(4-fluorophenyl)-7-methyl-1H-furo[3,2-e]benzimidazole-5-carboxamide] | 92.4% | 99.3% | > 100 nM
7 | CCC(C)(C)NC(=O)c1cc2nc(Nc3c(Cl)cccc3Cl)[nH]c2c2c1OC(C)(C)C2 [Example-41, 2-[(2,6-Dichlorophenyl)amino]-7,7-dimethyl-N-(2-methylbutan-2-yl)-7,8-dihydro-1H-furo[3,2-e]benzimidazole-5-carboxamide] | 99.2% | 95.7% | < 50 nM
8 | CC(C)CCNC(=O)c1cc2nc(Nc3c(Cl)cccc3Cl)[nH]c2c2c1OC(C)(C)C2 [Example-46, 2-[(2,6-Dichlorophenyl)amino]-7,7-dimethyl-N-(3-methylbutyl)-7,8-dihydro-1H-furo[3,2-e]benzimidazole-5-carboxamide] | 100% | 100% | < 50 nM
9 | Cc1cc2c(o1)c(C(=O)NCc1ccc(F)cc1)cc1nc(Nc3c(F)cccc3Cl)[nH]c12 [Example-48, 2-[(2-Chloro-6-fluorophenyl)amino]-N-(4-fluorobenzyl)-7-methyl-1H-furo[3,2-e]benzimidazole-5-carboxamide] | 70.8% | 96.7% | 
10 | Cc1cc2c(o1)c(C(=O)NCC1CCCCC1)cc1nc(Nc3c(F)cccc3Cl)[nH]c12 [Example-49, 2-[(2-Chloro-6-fluorophenyl)amino]-N-(cyclohexylmethyl)-7-methyl-1H-furo[3,2-e]benzimidazole-5-carboxamide] | 91.6% | 96.1% | 
11 | Cc1cc2c(o1)c(C(=O)NCCC(C)C)cc1nc(Nc3c(Cl)cncc3Cl)[nH]c12 [Example-50, 2-[(3,5-Dichloropyridin-4-yl)amino]-7-methyl-N-(3-methylbutyl)-1H-furo[3,2-e]benzimidazole-5-carboxamide] | 89.2% | 99.3% | 
12 | Cc1cc2c(o1)c(C(=O)NCC1CC1)cc1nc(Nc3c(Cl)cccc3Cl)[nH]c12 [Example-57, N-(Cyclopropylmethyl)-2-[(2,6-dichlorophenyl)amino]-7-methyl-1H-furo[3,2-e]benzimidazole-5-carboxamide] | 61.7% | 88.2% | 
13 | CC1(C)Cc2c(c(C(=O)NN3CCCC3)cc3nc(Nc4c(Cl)cccc4Cl)[nH]c23)O1 [Example-58, 2-[(2,6-Dichlorophenyl)amino]-7,7-dimethyl-N-(pyrrolidin-1-yl)-7,8-dihydro-1H-furo[3,2-e]benzimidazole-5-carboxamide] | 63.3% | 95.4% | 

The next lines start with the values.

Row | inhibition at 1 µM | inhibition at 10 µM | IC50 | Structure (SMILES)
14 | 93.8% | 92.5% | < 50 nM | CC1(C)Cc2c(c(C(=O)Nc3ccccc3F)cc3nc(Nc4c(Cl)cccc4Cl)[nH]c23)O1 [Example-30, 2-[(2,6-Dichlorophenyl)amino]-N-(2-fluorophenyl)-7,7-dimethyl-7,8-dihydro-1H-furo[3,2-e]benzimidazole-5-carboxamide]
15 | 74.5% | 81.5% |  | Cc1nnc(NC(=O)c2cc3nc(Nc4c(Cl)cccc4Cl)[nH]c3c3c2OC(C)(C)C3)s1 [Example-38, 2-[(2,6-Dichlorophenyl)amino]-7,7-dimethyl-N-(5-methyl-1,3,4-thiadiazol-2-yl)-7,8-dihydro-1H-furo[3,2-e]benzimidazole-5-carboxamide]
16 | 92.5% | 70.7% | < 50 nM | CC1(C)Cc2c(c(C(=O)NCc3ccc(F)cc3)cc3nc(Nc4c(F)cccc4Cl)[nH]c23)O1 [Example-39, 2-[(2-Chloro-6-fluorophenyl)amino]-N-(4-fluorobenzyl)-7,7-dimethyl-7,8-dihydro-1H-furo[3,2-e]benzimidazole-5-carboxamide]
17 | 88.7% | 94.6% | < 50 nM | Cc1cnc(NC(=O)c2cc3nc(Nc4c(Cl)cccc4Cl)[nH]c3c3c2OC(C)(C)C3)s1 [Example-40, 2-[(2,6-Dichlorophenyl)amino]-7,7-dimethyl-N-(5-methyl-1,3-thiazol-2-yl)-7,8-dihydro-1H-furo[3,2-e]benzimidazole-5-carboxamide]
18 | 83.2% | 89.9% | < 50 nM | CC1(C)Cc2c(c(C(=O)NCC3CCCCC3)cc3nc(Nc4c(F)cccc4Cl)[nH]c23)O1 [Example-42, 2-[(2-Chloro-6-fluorophenyl)amino]-N-(cyclohexylmethyl)-7,7-dimethyl-7,8-dihydro-1H-furo[3,2-e]benzimidazole-5-carboxamide]
19 | 43.8% | 72.3% | < 50 nM | CC(O)CNC(=O)c1cc2nc(Nc3c(Cl)cccc3Cl)[nH]c2c2c1OC(C)(C)C2 (stereo not shown) [Example-43, 2-[(2,6-Dichlorophenyl)amino]-N-(2-hydroxypropyl)-7,7-dimethyl-7,8-dihydro-1H-furo[3,2-e]benzimidazole-5-carboxamide]
20 | 96.9% | 99.4% | < 50 nM | CC1(C)Cc2c(c(C(=O)Nc3ccccc3F)cc3nc(Nc4c(F)cccc4Cl)[nH]c23)O1 [Example-51, 2-[(2-Chloro-6-fluorophenyl)amino]-N-(2-fluorophenyl)-7,7-dimethyl-7,8-dihydro-1H-furo[3,2-e]benzimidazole-5-carboxamide]
21 | 94.3% | 96% | < 50 nM | CC(C)(C)CC(C)(C)NC(=O)c1cc2nc(Nc3c(F)cccc3Cl)[nH]c2c2c1OC(C)(C)C2 [Example-52, 2-[(2-Chloro-6-fluorophenyl)amino]-7,7-dimethyl-N-(2,4,4-trimethylpentan-2-yl)-7,8-dihydro-1H-furo[3,2-e]benzimidazole-5-carboxamide]
22 | 47.2% | 85.4% |  | CC1(C)Cc2c(c(C(=O)Nc3nc(C(C)(C)C)cs3)cc3nc(Nc4c(F)cccc4Cl)[nH]c23)O1 [Example-53, N-(4-tert-Butyl-1,3-thiazol-2-yl)-2-[(2-chloro-6-fluorophenyl)amino]-7,7-dimethyl-7,8-dihydro-1H-furo[3,2-e]benzimidazole-5-carboxamide]
23 | 79.2% | 92.8% |  | Cc1csc(NC(=O)c2cc3nc(Nc4c(F)cccc4Cl)[nH]c3c3c2OC(C)(C)C3)n1 [Example-54, 2-[(2-Chloro-6-fluorophenyl)amino]-7,7-dimethyl-N-(4-methyl-1,3-thiazol-2-yl)-7,8-dihydro-1H-furo[3,2-e]benzimidazole-5-carboxamide]
24 | 91.8% | 94.2% | > 100 nM | Cc1nc(NC(=O)c2cc3nc(Nc4c(F)cccc4Cl)[nH]c3c3c2OC(C)(C)C3)sc1C [Example-55, 2-[(2-Chloro-6-fluorophenyl)amino]-N-(4,5-dimethyl-1,3-thiazol-2-yl)-7,7-dimethyl-7,8-dihydro-1H-furo[3,2-e]benzimidazole-5-carboxamide]
25 | 96% | 98.2% | < 50 nM | CC1(C)Cc2c(c(C(=O)Nc3cccc(F)c3)cc3nc(Nc4c(F)cccc4Cl)[nH]c23)O1 [Example-56, 2-[(2-Chloro-6-fluorophenyl)amino]-N-(3-fluorophenyl)-7,7-dimethyl-7,8-dihydro-1H-furo[3,2-e]benzimidazole-5-carboxamide]

— patent US8519149B2, “Tricyclic compounds as mPGES-1 inhibitors” (Glenmark Pharmaceuticals S.A., priority 2010, dated 2013)
